The source of these data is patent publication US9686985B2, “Fungicide N-cycloalkyl-N-bicyclicmethylene-carboxamide derivatives” (BAYER INTELLECTUAL PROPERTY GMBH, priority 2012, dated 2017).

For one test, the system named is Sphaerotheca fuliginea. The experiment in a line: Example A: in vivo preventive test on Sphaerotheca fuliginea (cucumber). The protocol:
Example A: In Vivo Preventive Test on Sphaerotheca fuliginea (Cucumber) [table] To produce a suitable preparation of active compound, 1 part by weight of active compound is mixed with the stated amounts of solvent and emulsifier, and the concentrate is diluted with water to the desired concentration. To test for preventive activity, young plants are sprayed with the preparation of active compound at the stated rate of application. One day after this treatment, the plants are inoculated with an aqueous spore suspension of Sphaerotheca fuliginea. Then the plants are placed in a greenhouse at approximately 23° C. and a relative atmospheric humidity of approximately 70%.

Another test deals with Uromyces appendiculatus. The test can be described thus: Example F: in vivo preventive test on Uromyces appendiculatus (beans). The conditions noted are these: table F, 100 ppm, evaluated 10 days after inoculation. The protocol:
Example F: In Vivo Preventive Test on Uromyces appendiculatus (Beans) [table] To produce a suitable preparation of active compound, 1 part by weight of active compound is mixed with the stated amounts of solvent and emulsifier, and the concentrate is diluted with water to the desired concentration. To test for preventive activity, young plants are sprayed with the preparation of active compound at the stated rate of application. After the spray coating has dried on, the plants are inoculated with an aqueous spore suspension of the causal agent of bean rust (Uromyces appendiculatus) and then remain for 1 day in an incubation cabinet at approximately 20° C. and a relative atmospheric humidity of 100%. The plants are then placed in a greenhouse at approximately 21° C. and a relative atmospheric humidity of approximately 90%.

Test [1] deals with Blumeria graminis f.sp. hordei. The test can be described thus: Example I: in vivo preventive test on Blumeria graminis (barley). Particulars: table I, 500 ppm, evaluated 7 days after inoculation. The protocol: Example I: In Vivo Preventive Test on Blumeria graminis (Barley) [table] To produce a suitable preparation of active compound, 1 part by weight of active compound or active compound combination is mixed with the stated amounts of solvent and emulsifier, and the concentrate is diluted with water to the desired concentration. To test for preventive activity, young plants are sprayed with the preparation of active compound or active compound combination at the stated rate of application. After the spray coating has been dried, the plants are dusted with spores of Blumeria graminis f.sp. hordei. The plants are placed in the greenhouse at a temperature of approximately 18° C. and a relative atmospheric humidity of approximately 80% to promote the development of mildew pustules.

For test [2], the system named is Septoria tritici. The test can be described thus: Example K: in vivo preventive test on Septoria tritici (wheat). Particulars: table K, 500 ppm, evaluated 21 days after inoculation. The protocol: (§1) Example K: In Vivo Preventive Test on Septoria tritici (Wheat) [table] To produce a suitable preparation of active compound, 1 part by weight of active compound or active compound combination is mixed with the stated amounts of solvent and emulsifier, and the concentrate is diluted with water to the desired concentration. To test for preventive activity, young plants are sprayed with the preparation of active compound or active compound combination at the stated rate of application. After the spray coating has been dried, the plants are sprayed with a spore suspension of Septoria The plants remain for 48 hours in an incubation cabinet at approximately 20° C. and a relative atmospheric humidity of approximately 100% and afterwards for 60 hours at approximately 15° C. in a translucent incubation cabinet at a relative atmospheric humidity of approximately 100%. The plants are placed in the greenhouse at a temperature of approximately 15° C. and a relative atmospheric humidity of approximately 80%.

The test system of test [3] is Septoria tritici. The test can be described thus: Example L: in vivo preventive test on Septoria tritici (wheat). Particulars: table L; 500 ppm; wheat plants; grading 24 days after contamination. Put shortly:
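Scipion wheat at 1-leaf stage sprayed with compound, inoculated 24 h later with Septoria tritici spores (500 000/mL). Incubated 72 h at 18° C., 100% RH, then 21 days at 90% RH; % efficacy versus untreated controls graded 24 days post-inoculation.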

The test system of a further test is Pyrenophora teres. The test can be described thus: Example N: in vivo preventive test on Pyrenophora teres (barley). The conditions noted are these: table N; 500 ppm; barley plants; grading 14 days after contamination. Put shortly:
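Barley (cv. Plaisant) at 1-leaf stage was sprayed with compound, then inoculated 24 h later with P. teres spores (12 000/mL). Plants were held 48 h at 20 °C, 100% RH, then 12 days at 20 °C, 70-80% RH; % efficacy versus solvent-treated controls was graded 14 days post-inoculation.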

In the next test the test system is Puccinia triticina. The experiment in a line: Example O: in vivo preventive test on Puccinia triticina (wheat). The conditions noted are these: table O, 500 ppm, evaluated 8 days after inoculation. The protocol:
as §1, with “O:” for “K:”, “Puccinia triticina” for “Septoria tritici”, “Puccinia triticina.” for “Septoria”, “approximately” for “approximately 100% and afterwards for 60 hours at approximately 15° C. in a translucent incubation cabinet at a relative atmospheric humidity of approximately”, “20°” for “15°”

For a further test, the system named is Puccinia recondita. The experiment in a line: Example R: in vivo preventive test on Puccinia recondita (brown rust on wheat). Particulars: table R; 500 ppm; wheat plants; grading 12 days after contamination. Put shortly: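 Wheat seedlings (Scipion) sprayed with active ingredient at 1 leaf stage, then inoculated 24 hours later with 100 000 spores/mL Puccinia recondita. Incubated 24 hours at 20° C. and 100% humidity, then 10 days at 20° C. and 70-80% humidity; % efficacy versus solvent-treated controls graded 12 days post-contamination.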

Where [4] appears, read: table A1, 100 ppm of active ingredient, evaluated 7 days after inoculation.
Setting [5] is: table A2, dose 100 ppm, comparison with WO-2010/086311 compounds.

In the case of `CC(C1CCCc2ccccc21)N(C(=O)c1c(C(F)F)nn(C)c1F)C1CC1` (stereo not drawn) [I.23], the Efficacy in the test with Sphaerotheca fuliginea (setting [4]) is recorded as 94%; in the test with Sphaerotheca fuliginea (setting [5]) it was 94%; in the test on Uromyces appendiculatus it was 96%; in test [1], 78%; with Septoria tritici [2], 100%; in the test on Septoria tritici [3], 100%. For the same compound, the Efficacy in the test on Pyrenophora teres is 100%; in the test on Puccinia triticina it was 75%; in the test with Puccinia recondita it was 97%.

Regarding `Cn1nc(C(F)F)c(C(=O)N(CC2CC(C)(C)Oc3ccccc32)C2CC2)c1F` (stereo not drawn) [I.33], the Efficacy in the test on Sphaerotheca fuliginea (setting [4]) amounted to 94%; in the test with Sphaerotheca fuliginea (setting [5]), 94%; in the test on Uromyces appendiculatus, 100%; in test [1], 100%; in the test on Septoria tritici [2] it was 100%; with Septoria tritici [3], 100%. In addition, the Efficacy stood at 100% with Pyrenophora teres, 100% in the test with Puccinia triticina and 97% in the test with Puccinia recondita.
